From PubChem BioAssay AID1259407 (Chemical Carcinogenesis Research Information System (CCRIS), 2018)
Activity calls are given as the source filed them. How the calls were made is not given here.

System: CCRIS mutagenicity, Ames/micronucleus/aberration tests
Test: CCRIS mutagenicity studies
[1] = Test System: AMES SALMONELLA TYPHIMURIUM, Strain/Indicator: TA98, Metabolic Activation: NONE, Method: STANDARD PLATE
[2] = Test System: AMES SALMONELLA TYPHIMURIUM, Strain/Indicator: TA98, Metabolic Activation: RAT, LIVER, S-9, AROCLOR 1254, Method: STANDARD PLATE
[3] = Test System: AMES SALMONELLA TYPHIMURIUM, Strain/Indicator: TA100, Metabolic Activation: NONE, Method: STANDARD PLATE
[4] = Test System: AMES SALMONELLA TYPHIMURIUM, Strain/Indicator: TA100, Metabolic Activation: RAT, LIVER, S-9, AROCLOR 1254, Method: STANDARD PLATE
[5] = Test System: AMES SALMONELLA TYPHIMURIUM, Strain/Indicator: TA1535, Metabolic Activation: NONE, Method: STANDARD PLATE
[6] = Test System: AMES SALMONELLA TYPHIMURIUM, Strain/Indicator: TA1535, Metabolic Activation: RAT, LIVER, S-9, AROCLOR 1254, Method: STANDARD PLATE
[7] = Test System: AMES SALMONELLA TYPHIMURIUM, Strain/Indicator: TA1537, Metabolic Activation: NONE, Method: STANDARD PLATE
[8] = Test System: AMES SALMONELLA TYPHIMURIUM, Strain/Indicator: TA1537, Metabolic Activation: RAT, LIVER, S-9, AROCLOR 1254, Method: STANDARD PLATE

Row | SMILES | mutagenic call [1] | mutagenic call [2] | mutagenic call [3] | mutagenic call [4] | mutagenic call [5] | mutagenic call [6] | mutagenic call [7] | mutagenic call [8] | further results
1 | C=C(C)C(=O)OCC(C)(C)C | inactive; negative | inactive; negative | inactive; negative | inactive; negative | inactive; negative | inactive; negative | inactive; negative | inactive; negative | mutagenic call (Test System: AMES SALMONELLA TYPHIMURIUM, Strain/Indicator: TA98, Metabolic Activation: RAT, LIVER, S-9, SODIUM PHENOBARBITAL, Method: STANDARD PLATE): inactive; negative; mutagenic call (Test System: AMES SALMONELLA TYPHIMURIUM, Strain/Indicator: TA100, Metabolic Activation: RAT, LIVER, S-9, SODIUM PHENOBARBITAL, Method: STANDARD PLATE): inactive; negative; mutagenic call (Test System: AMES SALMONELLA TYPHIMURIUM, Strain/Indicator: TA1535, Metabolic Activation: RAT, LIVER, S-9, SODIUM PHENOBARBITAL, Method: STANDARD PLATE): inactive; negative; mutagenic call (Test System: AMES SALMONELLA TYPHIMURIUM, Strain/Indicator: TA1537, Metabolic Activation: RAT, LIVER, S-9, SODIUM PHENOBARBITAL, Method: STANDARD PLATE): inactive; negative; mutagenic call (Test System: AMES SALMONELLA TYPHIMURIUM, Strain/Indicator: TA1538, Metabolic Activation: NONE, Method: STANDARD PLATE): inactive; negative; mutagenic call (Test System: AMES SALMONELLA TYPHIMURIUM, Strain/Indicator: TA1538, Metabolic Activation: RAT, LIVER, S-9, AROCLOR 1254, Method: STANDARD PLATE): inactive; negative; mutagenic call (Test System: AMES SALMONELLA TYPHIMURIUM, Strain/Indicator: TA1538, Metabolic Activation: RAT, LIVER, S-9, SODIUM PHENOBARBITAL, Method: STANDARD PLATE): inactive; negative
2 | ClCCBr |  |  |  |  |  |  |  |  | mutagenic call (End Point: IN VITRO CHROMOSOMAL ABERRATIONS, Test System: CHL CELLS, Metabolic Activation: RAT, LIVER, S-9, SODIUM PHENOBARBITAL AND 5,6-BENZOFLAVONE): active; positive (structural changes); mutagenic call (Test System: AMES SALMONELLA TYPHIMURIUM, Strain/Indicator: TA1530, Metabolic Activation: NONE, Method: SPOT): active; positive; mutagenic call (Test System: AMES SALMONELLA TYPHIMURIUM, Strain/Indicator: TA1535, Metabolic Activation: NONE, Method: SPOT): active; positive
3 | C[C@@H]1C[C@H]2[C@@H]3CCC4=CC(=O)C=C[C@]4(C)[C@@]3(F)[C@@H](O)C[C@]2(C)[C@@]1(O)C(=O)CO | inactive; negative |  | inactive; negative |  | inactive; negative |  |  |  | mutagenic call (End Point: IN VITRO CHROMOSOMAL ABERRATIONS, Test System: HUMAN PERIPHERAL LYMPHOCYTES, Metabolic Activation: NONE): active; positive at 10 and 100 ug/ml with 72 hr treatment; mutagenic call (End Point: IN VIVO MICRONUCLEUS, Test System: BONE MARROW POLYCHROMATIC ERYTHROCYTES, Species: MOUSE, Strain/Sex: SWISS/MALE, Route: IP INJECTION (SINGLE DOSE)): active; positive; mutagenic call (Test System: AMES SALMONELLA TYPHIMURIUM, Strain/Indicator: TA97A, Metabolic Activation: NONE, Method: STANDARD PLATE): inactive; negative; mutagenic call (Test System: AMES SALMONELLA TYPHIMURIUM, Strain/Indicator: TA97A, Metabolic Activation: RAT, LIVER, S-9, PHENOBARBITAL, Method: STANDARD PLATE): inactive; negative; mutagenic call (Test System: AMES SALMONELLA TYPHIMURIUM, Strain/Indicator: TA98, Metabolic Activation: RAT, LIVER, S-9, PHENOBARBITAL, Method: STANDARD PLATE): inactive; negative; mutagenic call (Test System: AMES SALMONELLA TYPHIMURIUM, Strain/Indicator: TA100, Metabolic Activation: RAT, LIVER, S-9, PHENOBARBITAL, Method: STANDARD PLATE): inactive; negative; mutagenic call (Test System: AMES SALMONELLA TYPHIMURIUM, Strain/Indicator: TA1535, Metabolic Activation: RAT, LIVER, S-9, PHENOBARBITAL, Method: STANDARD PLATE): inactive; negative
4 | C#CC(OC(=O)NC1CCCCC1)(c1ccccc1)c1ccc(C)c(C)c1 (centres undefined) |  |  | active; positive |  | active; positive |  |  |  | mutagenic call (Test System: UDS HUMAN FIBROBLASTS, Strain/Indicator: THY INCORP (NON-S-PHASE), Metabolic Activation: NONE, Method: AUTORADIOGRAPHY): active; positive
5 | O=S(=O)(Oc1ccc(Cl)cc1Cl)c1cccc2cccnc12 | inactive; negative | active; positive | inactive; negative | active; positive | inactive; negative | inactive; negative | inactive; negative | inactive; negative | 
